These results are taken from patent US10787430B2, “Hemoglobin modifier compounds and uses thereof” (FronThera U.S. Pharmaceuticals LLC, priority 2016, dated 2020).

In this experiment the target is T1, hemoglobin (20% hct blood) (Homo sapiens, UniProt P68871+P69905).
T1 construct: Normal whole blood was collected from adult healthy donors; from tissue; host or cells: normal human whole blood (red blood cells), adult healthy donors
Description: Dose-dependent whole blood OEC studies. Type of experiment: cell-based. Conditions: 37° C., 1 hr; for delta p50 0.2 mM: 0.2 mM compound; for delta p50 0.5 mM: 0.5 mM compound. The method, then:
Materials: Normal whole blood was collected from adult healthy donors at the Virginia Commonwealth University after informed consent. The use of these human samples is in accordance with regulations of the IRB for Protection of Human Subjects. Compounds (50 mM-100 mM concentration in DMSO) were stored at 15° C. or room temperature until use.
To 2 ml 20% hct blood, 0.2 or 0.5 or 1 mM compound was added and kept shaking at 37° C. for 1 hr. OEC analysis was performed as described above to determine partial pressure of oxygen (pO2) and Hb oxygen saturation values (sO2). A control without compound but containing equivalent amount of DMSO was performed (1%). GBT440 was used as a positive control. Table 2 below lists the delta p50% values.

T1 sequence (P69905 2-142 limits assumed): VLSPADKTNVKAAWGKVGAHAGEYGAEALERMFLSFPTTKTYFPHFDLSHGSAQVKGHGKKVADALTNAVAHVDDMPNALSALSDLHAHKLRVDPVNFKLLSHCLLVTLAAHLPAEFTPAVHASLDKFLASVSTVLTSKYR
T1 sequence (P68871 2-147 limits assumed): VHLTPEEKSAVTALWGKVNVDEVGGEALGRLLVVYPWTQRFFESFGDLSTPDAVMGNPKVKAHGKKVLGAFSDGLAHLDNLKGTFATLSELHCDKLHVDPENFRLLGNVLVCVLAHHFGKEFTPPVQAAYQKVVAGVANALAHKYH

As to `[2H]C(C)(C)n1nccc1-c1nccnc1COc1cccc(O)c1C=O` [Example 51, 2-hydroxy-6-((3-(1-(propan-2-yl-2-d)-1H-pyrazol-5-yl)pyrazin-2-yl)methoxy)benzaldehyde], the “delta p50 0.2 mM” value was −13.10% and the “delta p50 0.5 mM” value is reported as −36.40%.
On to `CC(C)n1nccc1-c1ncncc1COc1ccc2ncsc2c1C=O` [Example 53, 6-((4-(1-isopropyl-1H-pyrazol-5-yl)pyrimidin-5-yl)methoxy)benzo[d]thiazole-7-carbaldehyde], for which the “delta p50 0.2 mM” value is −20.50% and the “delta p50 0.5 mM” value is recorded as −37.80%.
On to `CC(C)n1nccc1-c1ncncc1COc1ccc2ncoc2c1C=O` [Example 54, 6-((4-(1-isopropyl-1H-pyrazol-5-yl)pyrimidin-5-yl)methoxy)benzo[d]oxazole-7-carbaldehyde], for which the “delta p50 0.2 mM” value is recorded as −12.00% and the “delta p50 0.5 mM” value is on record as −35.00%.
For `CC(C)n1nccc1-c1ncncc1COc1ccc2cccnc2c1C=O` [Example 55, 7-((4-(1-isopropyl-1H-pyrazol-5-yl)pyrimidin-5-yl)methoxy)quinoline-8-carbaldehyde], the “delta p50 0.2 mM” value is −5.30% and the “delta p50 0.5 mM” value is recorded as −8.80%.
In the case of `CC(C)n1nccc1-c1ncncc1COc1ccc2cccnc2c1C=O` [Example 56, 7-((4-(1-isopropyl-1H-pyrazol-5-yl)pyrimidin-5-yl)methoxy)quinoline-8-carbaldehyde], the “delta p50 0.2 mM” value is −1.60% and the “delta p50 0.5 mM” value is −11.30%.
Turning to `CC(C)n1ncc(F)c1-c1ncncc1COc1cccc(O)c1C=O` [Example 57, 2-((4-(4-fluoro-1-isopropyl-1H-pyrazol-5-yl)pyrimidin-5-yl)methoxy)-6-hydroxybenzaldehyde], the “delta p50 0.2 mM” value is listed as −4.90% and the “delta p50 0.5 mM” value was −7.60%.
On to `CC(C)n1nccc1-c1cccnc1COc1ccc2ncoc2c1C=O` [Example 58, 6-((3-(1-isopropyl-1H-pyrazol-5-yl)pyridin-2-yl)methoxy)benzo[d]oxazole-7-carbaldehyde], for which the “delta p50 0.2 mM” value is recorded as −14.30% and the “delta p50 0.5 mM” value is given as −34.30%.
On to `CC(C)n1nccc1-c1c(COc2cccc(O)c2C=O)ncn1C` [Example 63, 2-hydroxy-6-((5-(1-isopropyl-1H-pyrazol-5-yl)-1-methyl-1H-imidazol-4-yl)methoxy)benzaldehyde], for which the “delta p50 0.2 mM” value was −7.00% and the “delta p50 0.5 mM” value is reported as −15.20%.
As for `CC(C)n1nccc1-c1scnc1COc1cccc(O)c1C=O` [Example 64, 2-hydroxy-6-((5-(1-isopropyl-1H-pyrazol-5-yl)thiazol-4-yl)methoxy)benzaldehyde], the “delta p50 0.2 mM” value is −10.00% and the “delta p50 0.5 mM” value is given as −31.00%.
The like results for `CC(C)n1nccc1-c1ncsc1COc1cccc(O)c1C=O` [Example 65, 2-hydroxy-6-((4-(1-isopropyl-1H-pyrazol-5-yl)thiazol-5-yl)methoxy)benzaldehyde] were, in that order, −11.20% and −36.20%.
The like results for `CC(C)n1nccc1-c1ocnc1COc1cccc(O)c1C=O` [Example 66, 2-hydroxy-6-((5-(1-isopropyl-1H-pyrazol-5-yl)oxazol-4-yl)methoxy)benzaldehyde] were, in that order, −5.70% and −16.50%.
With `CC(C)n1nccc1-c1ncoc1COc1cccc(O)c1C=O` [Example 67, 2-hydroxy-6-((4-(1-isopropyl-1H-pyrazol-5-yl)oxazol-5-yl)methoxy)benzaldehyde], the “delta p50 0.2 mM” value is on record as −6.80% and the “delta p50 0.5 mM” value is listed as −25.30%.
On to `Cc1nc(COc2cccc(O)c2C=O)c(-c2ccnn2C(C)C)o1` [Example 68, 2-hydroxy-6-((5-(1-isopropyl-1H-pyrazol-5-yl)-2-methyloxazol-4-yl)methoxy)benzaldehyde], for which the “delta p50 0.2 mM” value is recorded as −8.70% and the “delta p50 0.5 mM” value is −13.00%.
